Reference: patent US6329363A, “Cephalosporin antibiotics” (Eli Lilly and Company, priority 1998, dated 2001)
Values after ≈ are worked out from the molar mass of the structure shown.

Tests used:
[1] = tested on: Streptococcus uberis 150 L; assay: MIC, in vitro activity vs. Streptococcus uberis 150 L; format: cell-based; set-up: unit not given beside the values; conditions: Incubated at 37° C. overnight
Description: (§1) Table 2 summarizes the minimal inhibitory concentrations (MIC's) at which illustrative formula I compounds and cephalothin inhibit certain microorganisms associated with mastitis, such as Staphylococcus aureus 10092 (Newbould strain).
(§2) ^a Incubated at 37° C. overnight

Salmonella typhimurium = assay: MIC against Gram-negative organisms: Salmonella typhimurium; format: cell-based; conditions: Incubated at 37° C. overnight; unit assumed
Description: (§3) The formula I compounds are also active against certain Gram-negative species.
as §2

[2] = tested on: pasteurella multocida 1051 (swine); assay: MIC against Gram-negative organisms: pasteurella multocida 1051 (swine); format: cell-based; conditions: Incubated at 37° C. overnight; unit assumed
Description: as §3, §2

[3] = tested on: Pasteurella haemolytica 128K (bovine); assay: MIC against Gram-negative organisms: Pasteurella haemolytica 128K (bovine); format: cell-based; conditions: Incubated at 37° C. overnight; unit assumed
Description: as §3, §2

Escherichia coli = assay: MIC against Gram-negative organisms: Escherichia coli; format: cell-based; conditions: Incubated at 37° C. overnight; unit assumed
Description: as §3, §2

[4] = tested on: Pasteurella haemolytica 129R (bovine); assay: MIC against Gram-negative organisms: Pasteurella haemolytica 129R (bovine); format: cell-based; conditions: Incubated at 37° C. overnight; unit assumed
Description: as §3, §2

[5] = tested on: Pasteurella haemolytica 114F (bovine); assay: MIC against Gram-negative organisms: Pasteurella haemolytica 114F (bovine); format: cell-based; conditions: Incubated at 37° C. overnight; unit assumed
Description: as §3, §2

[6] = tested on: pasteurella multocida ATCC 12945; assay: MIC against Gram-negative organisms: pasteurella multocida ATCC 12945; format: cell-based; conditions: Incubated at 37° C. overnight; unit assumed
Description: as §3, §2

Streptococcus agalactiae = assay: MIC, in vitro activity vs. Streptococcus agalactiae; format: cell-based; set-up: unit not given here; conditions: Incubated at 37° C. overnight
Description: as §1, §2

[7] = tested on: pasteurella multocida 10,102 (bovine); assay: MIC against Gram-negative organisms: pasteurella multocida 10,102 (bovine); format: cell-based; conditions: Incubated at 37° C. overnight; unit assumed
Description: as §3, §2

S.aureus F1C = assay: MIC, in vitro activity vs. S.aureus F1C; format: cell-based, Staphylococcus aureus; set-up: unit not given beside the values; conditions: Incubated at 37° C. overnight
Description: as §1, §2

[8] = tested on: Streptococcus uberis 166 L; assay: MIC, in vitro activity vs. Streptococcus uberis 166 L; format: cell-based; set-up: unit not given beside the values; conditions: Incubated at 37° C. overnight
Description: as §1, §2

[9] = tested on: pasteurella multocida 108E (bovine); assay: MIC against Gram-negative organisms: pasteurella multocida 108E (bovine); format: cell-based; conditions: Incubated at 37° C. overnight; unit assumed
Description: as §3, §2

S.aureus ATCC 29213 = assay: MIC, in vitro activity vs. S.aureus ATCC 29213; format: cell-based, Staphylococcus aureus; set-up: unit not given beside the values; conditions: Incubated at 37° C. overnight
Description: as §1, §2

S.aureus 174 C = assay: MIC, in vitro activity vs. S.aureus 174 C; format: cell-based, Staphylococcus aureus; set-up: unit not given beside the values; conditions: Incubated at 37° C. overnight
Description: as §1, §2

[10] = tested on: Staphylococcus aureus 10092 (Newbould); assay: Efficacy in induced Staphylococcus aureus mastitis model in lactating goats; format: in vivo; conditions: 8 halves per compound, 2 consecutive milkings 12 hours apart, approximately 25 mg/5 mL dose in peanut oil, from 36 hours post-challenge
From the text: Sixteen lactating goats were selected based on the absence of Staphylococcus aureus in pre-challenge milk cultures. Maintenance ration was provided to the animals throughout the study. The goats were milked twice each day using a portable goat milker.
Milk samples were collected during the morning milking. One day prior to challenge, milk culture samples were collected from each half of the test animals to determine if there was a pre-existing infection. Additionally, a sample was collected from each half for Somatic Cell Count (SCC) determination. A milk culture sample and a sample for SCC were collected from each half 24 hours post-challenge and on Days +4 to +6, +8, +11, +13, and +15.
Udder scoring was performed during each milking wing table:
General health observations and body temperature were recorded once a day following milking during the challenge and treatment periods.
Milk samples were submitted for analysis for SCC using an electronic somatic cell counting system.
Milk culture samples were assayed for bacterial culture by plating 1.0 mL and 0.1 mL of the milk sample directly onto duplicate blood agar plates. Additionally, dilutions 10^-1 of the milk sample were plated. Plates were incubated overnight at 37° C.
Staphylococcus aureus 10092 (Newbould) was used as the challenge strain. The challenge culture was grown in Tryptic Soy Broth (TSB) from a lyovial stock overnight (16 hours) at 37° C. TSB (100 mL) was inoculated with 1 mL of the overnight culture and incubated at 37° C. with shaking for 4 hours. The culture was centrifuged at 9000 rpm for 10 minutes at 10° C.; supernatant was removed and the pellet was resuspended in phosphate buffered saline (PBS). Optimum O.D. reading at 650 nm was approximately 0.035. A 10-fold dilution series was prepared with saline to determine the CFU/mL, plating 10^-5, 10^-6, and 10^-7 dilutions onto duplicate blood agar plates. The 10^-7 dilution (approximately 10 CFU/mL) was used for the challenge material, yielding a challenge of 50 CFU/half with a 5-mL infusion.
Sixteen goats were used for the trial. During a one day pre-challenge period, milk samples were collected and temperatures were taken during the morning milking. Milk/udder evaluations were documented during the morning and afternoon milkings.
Staphylococcus aureus 10092 was infused into both halves in each of the goats. The goats were challenged following the morning milking and milked in the afternoon on the day of challenge. The challenge inoculum volume was 5 mL/half containing approximately 50 CFU S. aureus.
For the 24 hr post-challenge period milk samples were collected during the morning milking, and milk/udder evaluations made during the morning and afternoon milking.
Treatment was started at 36 hours post-challenge. Milk samples were collected for culture and SCC 24 hours post-challenge, prior to the morning milking, and the treatment period started following the afternoon milking.
Eight halves (4 goats) each were treated for 2 consecutive milkings 12 hours apart, following milking. Each designated compound was formulated in peanut oil with […] of compound per 5 g of formulation to give approximately 25 mg/5 mL dose.
Following treatment, the goats were milked and observed for 15 days. Milk samples were collected on Days +4 to +6, +8, +11, +13, and +15 to determine if the infection had cleared.
Establishment of mastitis was determined by bacterial culturing, severity of udder scoring, somatic cell count results, and body temperature.
On Days +2 to +6, milk samples were collected for a calorimetric assay to determine whether the antibiotic was still present in the milk.

[11] = tested on: Staphylococcus aureus 10092 (Newbould strain); assay: MIC, in vitro activity vs. S.aureus 10092; format: cell-based; set-up: unit not given beside the values; conditions: Incubated at 37° C. overnight
Description: as §1, §2

[12] = tested on: Strepcococcus dysgalactiae; assay: MIC, in vitro activity vs. Streptococcus dysgalactiae; format: cell-based; set-up: unit not given here; conditions: Incubated at 37° C. overnight
Description: as §1, §2

Mastitis in Cows = assay: Efficacy in mastitis in lactating cows; format: in vivo; conditions: three trials, 450 mmoles/quarter/dose for two doses
Description: Compound 1 was administered to lactating cows in three trials using methods analogous to those used in the goat model described in Example 13. A total of 43 quarters were treated with Compound 1, and 36 quarters were treated with cephapirin (Cefa-Lak). Both compounds were administered at 450 mmoles/quarter/dose for two doses. Compound 1 effectively treated 27 out of 43 quarters for an overall cure rate of 63%, whereas cephapirin effectively treated 18 out of 36 quarters for an overall cure rate of only 50%.

| SMILES | MIC vs. Streptococcus uberis 150 L [1] | MIC, Salmonella typhimurium (Salmonella typhimurium) [µg/mL] | MIC, pasteurella multocida 1051 (swine) [2] [µg/mL] | MIC, Pasteurella haemolytica 128K (bovine) [3] [µg/mL] | MIC, Escherichia coli (Escherichia coli) [µg/mL] | MIC, Pasteurella haemolytica 129R (bovine) [4] [µg/mL] | MIC, Pasteurella haemolytica 114F (bovine) [5] [µg/mL] | MIC, pasteurella multocida ATCC 12945 [6] [µg/mL] | MIC vs. Streptococcus agalactiae (Streptococcus agalactiae) | MIC, pasteurella multocida 10,102 (bovine) [7] [µg/mL] | MIC vs. S.aureus F1C (S.aureus F1C) | MIC vs. Streptococcus uberis 166 L [8] | MIC, pasteurella multocida 108E (bovine) [9] [µg/mL] | MIC vs. S.aureus ATCC 29213 (S.aureus ATCC 29213) | MIC vs. S.aureus 174 C (S.aureus 174 C) | % Bacteriologic Cures [10] [%] | MIC vs. S.aureus 10092 [11] | MIC vs. Strepcococcus dysgalactiae [12] | overall cure rate (Mastitis in Cows) [%] | quarters effectively treated (Mastitis in Cows) |
| --- | --- | --- | --- | --- | --- | --- | --- | --- | --- | --- | --- | --- | --- | --- | --- | --- | --- | --- | --- | --- |
| CC(=O)OCC1=C(C(=O)O)N2C(=O)[C@@H](NC(=O)Cc3cccs3)[C@H]2SC1 [Cephalothin, reference compound] | 0.125 | 4 (≈ 10.1 µM) | 0.25 (≈ 0.631 µM) | 0.5 (≈ 1.26 µM) | 8 (≈ 20.2 µM) | 1 (≈ 2.52 µM) | 1 (≈ 2.52 µM) | 0.25 (≈ 0.631 µM) | 0.125 | 0.5 (≈ 1.26 µM) | 0.25 | 0.0625 | 0.5 (≈ 1.26 µM) | 0.25 | 0.25 | – | – | – | – | – |
| Cc1nnc(SCC2=C(C(=O)O)N3C(=O)[C@@H](NC(=O)CSc4ccc(C(F)(F)F)cc4)[C@H]3SC2)s1 [Compound 2] | 0.125 | – | – | – | – | – | – | – | 0.125 | – | 0.25 | 0.125 | – | 0.25 | 0.125 | 83 | 0.125 | 0.0625 | – | – |
| Cc1nnc(SCC2=C(C(=O)O)N3C(=O)[C@@H](NC(=O)CSc4c(F)c(F)c(F)c(F)c4F)[C@H]3SC2)s1 [Compound 3] | – | – | – | – | – | – | – | – | 0.0156 | – | 0.125 | 0.0156 | – | 0.125 | 0.0625 | 50 | 0.625 | 0.0156 | – | – |
| Cc1nnc(SCC2=C(C(=O)O)N3C(=O)[C@@H](NC(=O)CSc4ccc(S(=O)(=O)C(F)(F)F)cc4)[C@H]3SC2)s1 [Compound 4] | – | – | – | – | – | – | – | – | 0.0156 | – | 0.125 | – | – | 0.0625 | 0.0312 | 71 | 0.0312 | – | – | – |
| Cc1nnc(SCC2=C(C(=O)O)N3C(=O)[C@@H](NC(=O)CSc4c(F)c(F)c(C(F)(F)F)c(F)c4F)[C@H]3SC2)s1 [Compound 5] | 0.0156 | – | – | – | – | – | – | – | 0.0156 | – | 0.125 | – | – | 0.0625 | 0.0625 | 33 | 0.0625 | 0.0625 | – | – |
| Cc1nnc(SCC2=C(C(=O)O)N3C(=O)[C@@H](NC(=O)Cc4c(F)c(F)c(F)c(F)c4F)[C@H]3SC2)s1 [Compound 6] | 0.0625 | – | – | – | – | – | – | – | 0.0625 | – | 0.25 | 0.0156 | – | 0.125 | 0.125 | 60 | 0.125 | 0.0312 | – | – |
| Cc1nnc(SCC2=C(C(=O)O)N3C(=O)[C@@H](NC(=O)COc4ccc(OC(F)(F)F)cc4)[C@H]3SC2)s1 [Compound 7] | 0.0156 | – | – | – | – | – | – | – | 0.0312 | – | 0.0625 | 0.0078 | – | 0.312 | 0.312 | 100 | 0.312 | ≤ 0.0078 | – | – |
| Cc1nnc(SCC2=C(C(=O)O)N3C(=O)[C@@H](NC(=O)COc4ccc(F)cc4)[C@H]3SC2)s1 [Compound 8] | 0.0312 | – | – | – | – | – | – | – | 0.0312 | – | 0.0312 | 0.0312 | – | 0.312 | 0.0312 | 100 | 0.0312 | 0.0312 | – | – |
| Cc1nnc(SCC2=C(C(=O)O)N3C(=O)[C@@H](NC(=O)COc4c(F)cc(F)cc4F)[C@H]3SC2)s1 [Compound 9] | 0.0625 | – | – | – | – | – | – | – | 0.0312 | – | 0.125 | 0.0625 | – | 0.125 | 0.0625 | 83 | 0.125 | 0.125 | – | – |
| Cc1nnc(SCC2=C(C(=O)O)N3C(=O)[C@@H](NC(=O)COc4cc(F)cc(F)c4)[C@H]3SC2)s1 [Compound 10] | 0.0312 | – | – | – | – | – | – | – | 0.0156 | – | 0.0312 | 0.0156 | – | 0.0312 | 0.0312 | 33 | 0.0312 | 0.0312 | – | – |
| CC(=O)OCC1=C(C(=O)O)N2C(=O)[C@@H](NC(=O)CSc3ccncc3)[C@H]2SC1 [cephapirin, reference compound] | – | – | – | – | – | – | – | – | – | – | – | – | – | – | – | – | – | – | 50 | 18 out of 36 |
